Source: patent US4007282A, “Lowering lipid and sugar levels in the blood with a bis(4-hydroxyphenyl)alkanoic acid or ester thereof” (Hoechst Aktiengesellschaft, priority 1972, dated 1977)
Read-outs that look alike come from different tables or passages of the source.

How the values were obtained:
normolipemic rats = assay: Reduction of serum lipid values in normolipemic rats (8 days oral); type: in vivo, rat; settings: 8 doses, male rats; for serum cholesterol, change in percentage (A: referred to the initial value) / serum triglyceride, change in percentage (A: referred to the initial value): column A; for serum cholesterol, change in percentage (B: referred to the untreated control group) / serum triglyceride, change in percentage (B: referred to the untreated control group): column B
Description: 1. Male rats having a normal serum lipid content were treated for eight days with different daily doses mentioned in Table 1. The values given in that Table stand for a change in the serum concentrations of certain lipid classes. The doses administered per os by means of an esophageal sound were 100, 30 and 10 mg/kg/day. Generally, prior to and after the treatment, blood samples were taken and the concentration of cholesterol in the serum was determined according to the method of Lauber and Richterich and that of triglycerides according to the method of Eggstein and Kreutz. In the examples of the following Table 1, the changes in the serum lipid values due to the treatment with the substances of the invention are defined as follows:
a. The changes in percent in the final value of the treated group, referred to the initial value of the treated group, the initial value being 100 percent, and
b. the change in the final value of the treated group, referred to the final value of an accompanying untreated control group, the untreated control group's value being defined as 100 percent. Thus, the value given in columns A is the change in percentage referred to the initial value, whereas the value given in columns B is the change in percentage of the treated group, referred to the untreated control group.

mice = settings: Table 3
[1] = tested on: dietetic-medicamentous hyperlipemia of male rats; assay: Action on the dietetic-medicamentous hyperlipemia of male rats; type: in vivo; settings: Rattus norvegicus, po, 192 h, 100 mg/kg/day p.o., 8 days, male rats on cholesterol diet
Excerpt: All the animals were fed with a diet food containing 2% of cholesterol, 2% of sodium cholate, 0.3% of methyl-thiouracil, 20% of coco fat and 44% of cane sugar. The serum lipid concentration of the animals treated with the compounds of the invention was compared to that of an untreated control group on the same diet, which diet causes the serum cholesteral concentration to rise within 1 week to about 10 times the initial value, that of the serum triglycerides to 3 times and that of the phospho-lipids in the serum to 4 times the initial value. The lipid phosphorus was determined according to the method of Messrs. Boehringer Mannheim W. Germany. At the same time as the diet was offered, the compounds of the invention were administered once a day to groups of rats, each containing 10 animals, over a period of 8 days by means of an esophageal sound. The change in percentage in the serum lipid concentration as compared to the control group (diet without active substance) is indicated in Table 2.

in vivo = settings: mouse, po
[2] = tested on: rats that had been fed fructose doses; assay: Hypoglycemic activity: lowering of the blood sugar level in rats fed fructose doses; type: in vivo, rat; settings: 100 mg/kg once a day over 3 days, 24 hours after last administration, vs placebo control group
Description: The hypoglycemic activity of some bis(4-hydroxy-phenyl) alkanoic acid derivatives of formulae I and II could be established by administering once a day, over 3 days, 100 mg of the active compound per kg of test animal to rats that had been fed fructose doses and by taking blood samples 24 hours after the last administration in order to determine the blood sugar level by means of an autoanalyzer.
The lowering of the blood sugar content indicated in following Table 4 refers to a control group treated with placebos (blank doses).

[3] = tested on: hypertriglyceridemia induced by carbohydrates in male rats; assay: Action on the hypertriglyceridemia induced by carbohydrates (fructose) in male rats; type: in vivo; settings: Rattus norvegicus, 72 h, 3-day oral pre-treatment, vs untreated control, read-out: Change in percentage of hypertriglyceridemia induced by carbohydrates

## CC(C)(C)c1cc(C(C(=O)O)c2cc(C(C)(C)C)c(O)c(C(C)(C)C)c2)cc(C(C)(C)C)c1O [Example 3, Bis(4'-hydroxy-3',5'-di-tert.butyl-phenyl)ethanoic acid]
Normolipemic rats; 10 mg/kg/day p.o.
  serum cholesterol, change in percentage (A: referred to the initial value): -24%
  serum cholesterol, change in percentage (B: referred to the untreated control group): -21%
  serum triglyceride, change in percentage (B: referred to the untreated control group): -29%
Normolipemic rats; 30 mg/kg/day p.o.
  serum cholesterol, change in percentage (A: referred to the initial value): -32%
  serum triglyceride, change in percentage (A: referred to the initial value): -39%
  serum cholesterol, change in percentage (B: referred to the untreated control group): -22%
  serum triglyceride, change in percentage (B: referred to the untreated control group): -46%
Normolipemic rats; 100 mg/kg/day p.o.
  serum cholesterol, change in percentage (A: referred to the initial value): -61%
  serum triglyceride, change in percentage (A: referred to the initial value): -70%
  serum cholesterol, change in percentage (B: referred to the untreated control group): -52%
  serum triglyceride, change in percentage (B: referred to the untreated control group): -60%
mice
  LD50 mice p.o.: 6000 to 8000 mg/kg
[1]; read-out: serum cholesterol, change in percentage as compared to the control group
  change in vivo at 100 mg/kg: -23%
[1]; read-out: serum lipid phosphorus, change in percentage as compared to the control group
  change in vivo at 100 mg/kg: -26%
[1]; read-out: serum triglyceride, change in percentage as compared to the control group
  change in vivo at 100 mg/kg: -44%
In vivo
  LD50: 6000 to 8000 mg/kg
[2]
  lowering of the blood sugar level in per cent: -15 per cent
[3]; 30 mg/kg
  change in vivo at 30 mg/kg: -36%
[3]; 100 mg/kg
  change in vivo at 100 mg/kg: -37%
